Laboratory results from patent US20090047221A1 (NIPRI LIMITED, priority 2004, published 2009).

System: cancer cell line MDA-MB-468
Test: Combination index with known cancer drugs against proliferation (Calcusyn software)
Assay type: cell-based
Text: A combination index of less than 0.1 indicates very strong synergy; a combination index of 0.1 to 0.3 indicates strong synergism; a combination index of 0.3 to 0.7 indicates synergism; a combination index of 0.7 to 0.85 indicates moderate synergism; a combination index of 0.85 to 0.9 indicates slight synergism and a combination index of 0.9 to 1.1 indicates only very slight synergism, said combination being close to merely additive.
The combination index may be calculated using calcusyn software.
Evidence of synergy was determined by calculation of the combination index using Calcusyn software.
The MTT assay was used initially to determine the anti-proliferative activity of the test compounds. In the MTT assay a yellow thiazolyl blue tetrazolium bromide salt (MTT) is reduced, in metabolically active cells, to form insoluble purple formazan crystals which are solubilised by the addition of dimethyl sulphoxide (DMSO). Absorbance readings can then be determined spectrophotometrically and a relationship established between control untreated cells and drug treated cells enabling the quantification of anti-proliferative changes as a result of drug treatment (Mosmann, 1983).
Wells containing medium only were used as blanks. Following the attachment period, cells were treated with appropriate drug concentrations (20 μl added per well). 40 mg/ml stock drug solutions, in DMSO, were stored at −20° C. and on the day of drug treatment working solutions of 4 mg/ml were prepared in medium which was further diluted to achieve final drug dilution volumes of 20 μl. Initial screening was determined over a concentration range of 1-200 μg/ml. For potent compounds the assay was repeated over a narrower concentration range to determine accurate IC50 values. Cells were exposed to drug for 96 h continual exposure (37° C., 5% CO2). Following the 96 h incubation, 50 μl MTT solution (1 g MTT/500 ml PBS) was added per well and the plates were further incubated for 4 h (37° C., 5% CO2). After incubation the MTT and medium was removed from the wells and 100 μl DMSO added per well. Plates were agitated on an orbital mixer platform (Stuart Scientific) for 10 minutes. Absorbance was measured at 570 nm on a Biotrak II (Amersham Bioscience) plate reader. IC50 values were calculated comparing control and drug treated cells.

CCCCCCNC(=O)c1ccc2c(c1O)C(=O)OC(C)C2 (racemic) [ALM-49, Hexyl Amide]
Combination Index (Cisplatin 1 × 10^−2 mol/L, ALM compound 0.1 μg/ml): 0.003
Combination Index (Cisplatin 1 × 10^−2 mol/L, ALM compound 0.5 μg/ml): 0.002
Combination Index (Cisplatin 1 × 10^−2 mol/L, ALM compound 1.0 μg/ml): 0.009
Combination Index (Cisplatin 1 × 10^−2 mol/L, ALM compound 5.0 μg/ml): 0.051
Combination Index (Cisplatin 1 × 10^−3 mol/L, ALM compound 0.1 μg/ml): No
Combination Index (Cisplatin 1 × 10^−3 mol/L, ALM compound 0.5 μg/ml): No
Combination Index (Cisplatin 1 × 10^−3 mol/L, ALM compound 1.0 μg/ml): No
Combination Index (Cisplatin 1 × 10^−3 mol/L, ALM compound 5.0 μg/ml): No
Combination Index (Cisplatin 1 × 10^−4 mol/L, ALM compound 0.1 μg/ml): No
Combination Index (Cisplatin 1 × 10^−4 mol/L, ALM compound 0.5 μg/ml): No
Combination Index (Cisplatin 1 × 10^−4 mol/L, ALM compound 1.0 μg/ml): No
Combination Index (Cisplatin 1 × 10^−4 mol/L, ALM compound 5.0 μg/ml): No
Combination Index (Cisplatin 1 × 10^−5 mol/L, ALM compound 0.1 μg/ml): No
Combination Index (Cisplatin 1 × 10^−5 mol/L, ALM compound 0.5 μg/ml): No
Combination Index (Cisplatin 1 × 10^−5 mol/L, ALM compound 1.0 μg/ml): No
Combination Index (Cisplatin 1 × 10^−5 mol/L, ALM compound 5.0 μg/ml): No
Combination Index (Cisplatin 1 × 10^−6 mol/L, ALM compound 0.1 μg/ml): No
Combination Index (Cisplatin 1 × 10^−6 mol/L, ALM compound 0.5 μg/ml): No
Combination Index (Cisplatin 1 × 10^−6 mol/L, ALM compound 1.0 μg/ml): No
Combination Index (Cisplatin 1 × 10^−6 mol/L, ALM compound 5.0 μg/ml): No
Combination Index (Cisplatin 1 × 10^−7 mol/L, ALM compound 0.1 μg/ml): 0.625
Combination Index (Cisplatin 1 × 10^−7 mol/L, ALM compound 0.5 μg/ml): No
Combination Index (Cisplatin 1 × 10^−7 mol/L, ALM compound 1.0 μg/ml): No
Combination Index (Cisplatin 1 × 10^−7 mol/L, ALM compound 5.0 μg/ml): No
Combination Index (Cisplatin 1 × 10^−8 mol/L, ALM compound 0.1 μg/ml): 0.119
Combination Index (Cisplatin 1 × 10^−8 mol/L, ALM compound 0.5 μg/ml): No
Combination Index (Cisplatin 1 × 10^−8 mol/L, ALM compound 1.0 μg/ml): No
Combination Index (Cisplatin 1 × 10^−8 mol/L, ALM compound 5.0 μg/ml): No
Combination Index (Cisplatin 1 × 10^−9 mol/L, ALM compound 0.1 μg/ml): 0.487
Combination Index (Cisplatin 1 × 10^−9 mol/L, ALM compound 0.5 μg/ml): No
Combination Index (Cisplatin 1 × 10^−9 mol/L, ALM compound 1.0 μg/ml): No
Combination Index (Cisplatin 1 × 10^−9 mol/L, ALM compound 5.0 μg/ml): No
Combination Index (Doxorubicin 1 × 10^−4 mol/L, ALM compound 0.1 μg/ml): No
Combination Index (Doxorubicin 1 × 10^−4 mol/L, ALM compound 0.5 μg/ml): No
Combination Index (Doxorubicin 1 × 10^−4 mol/L, ALM compound 1.0 μg/ml): No
Combination Index (Doxorubicin 1 × 10^−4 mol/L, ALM compound 5.0 μg/ml): 0.968
Combination Index (Doxorubicin 1 × 10^−5 mol/L, ALM compound 0.1 μg/ml): 0.410
Combination Index (Doxorubicin 1 × 10^−5 mol/L, ALM compound 0.5 μg/ml): 0.436
Combination Index (Doxorubicin 1 × 10^−5 mol/L, ALM compound 1.0 μg/ml): 0.438
Combination Index (Doxorubicin 1 × 10^−5 mol/L, ALM compound 5.0 μg/ml): 0.720
Combination Index (Etoposide 1 × 10^−4 mol/L, ALM compound 0.1 μg/ml): 0.385
Combination Index (Etoposide 1 × 10^−4 mol/L, ALM compound 0.5 μg/ml): 0.234
Combination Index (Etoposide 1 × 10^−4 mol/L, ALM compound 1.0 μg/ml): 0.210
Combination Index (Etoposide 1 × 10^−4 mol/L, ALM compound 5.0 μg/ml): 0.175
Combination Index (Etoposide 1 × 10^−5 mol/L, ALM compound 0.1 μg/ml): 1.184
Combination Index (Etoposide 1 × 10^−5 mol/L, ALM compound 0.5 μg/ml): 0.659
Combination Index (Etoposide 1 × 10^−5 mol/L, ALM compound 1.0 μg/ml): 1.065
Combination Index (Etoposide 1 × 10^−5 mol/L, ALM compound 5.0 μg/ml): 0.941
Combination Index (Etoposide 1 × 10^−6 mol/L, ALM compound 0.1 μg/ml): No
Combination Index (Etoposide 1 × 10^−6 mol/L, ALM compound 0.5 μg/ml): 0.806
Combination Index (Etoposide 1 × 10^−6 mol/L, ALM compound 1.0 μg/ml): No
Combination Index (Etoposide 1 × 10^−6 mol/L, ALM compound 5.0 μg/ml): No
Combination Index (Etoposide 1 × 10^−7 mol/L, ALM compound 0.1 μg/ml): 1.167
Combination Index (Etoposide 1 × 10^−7 mol/L, ALM compound 0.5 μg/ml): 0.78
Combination Index (Etoposide 1 × 10^−7 mol/L, ALM compound 1.0 μg/ml): No
Combination Index (Etoposide 1 × 10^−7 mol/L, ALM compound 5.0 μg/ml): No
Combination Index (Etoposide 1 × 10^−8 mol/L, ALM compound 0.1 μg/ml): No
Combination Index (Etoposide 1 × 10^−8 mol/L, ALM compound 0.5 μg/ml): No
Combination Index (Etoposide 1 × 10^−8 mol/L, ALM compound 1.0 μg/ml): No
Combination Index (Etoposide 1 × 10^−8 mol/L, ALM compound 5.0 μg/ml): No
Combination Index (Etoposide 1 × 10^−9 mol/L, ALM compound 0.1 μg/ml): 0.836
Combination Index (Etoposide 1 × 10^−9 mol/L, ALM compound 0.5 μg/ml): No
Combination Index (Etoposide 1 × 10^−9 mol/L, ALM compound 1.0 μg/ml): No
Combination Index (Etoposide 1 × 10^−9 mol/L, ALM compound 5.0 μg/ml): No
Combination Index (Etoposide 1 × 10^−10 mol/L, ALM compound 0.1 μg/ml): 0.344
Combination Index (Etoposide 1 × 10^−10 mol/L, ALM compound 0.5 μg/ml): No
Combination Index (Etoposide 1 × 10^−10 mol/L, ALM compound 1.0 μg/ml): No
Combination Index (Etoposide 1 × 10^−10 mol/L, ALM compound 5.0 μg/ml): No
Combination Index (Irinotecan 1 × 10^−3 mol/L, ALM compound 0.1 μg/ml): No
Combination Index (Irinotecan 1 × 10^−3 mol/L, ALM compound 0.5 μg/ml): 0.606
Combination Index (Irinotecan 1 × 10^−3 mol/L, ALM compound 1.0 μg/ml): 0.715
Combination Index (Irinotecan 1 × 10^−3 mol/L, ALM compound 5.0 μg/ml): 0.557
Combination Index (Irinotecan 1 × 10^−4 mol/L, ALM compound 0.1 μg/ml): 0.029
Combination Index (Irinotecan 1 × 10^−4 mol/L, ALM compound 0.5 μg/ml): 0.019
Combination Index (Irinotecan 1 × 10^−4 mol/L, ALM compound 1.0 μg/ml): 0042
Combination Index (Irinotecan 1 × 10^−4 mol/L, ALM compound 5.0 μg/ml): 0.042
Combination Index (Irinotecan 1 × 10^−5 mol/L, ALM compound 0.1 μg/ml): No
Combination Index (Irinotecan 1 × 10^−5 mol/L, ALM compound 0.5 μg/ml): No
Combination Index (Irinotecan 1 × 10^−5 mol/L, ALM compound 1.0 μg/ml): No
Combination Index (Irinotecan 1 × 10^−5 mol/L, ALM compound 5.0 μg/ml): No
Combination Index (Irinotecan 1 × 10^−6 mol/L, ALM compound 0.1 μg/ml): No
Combination Index (Irinotecan 1 × 10^−6 mol/L, ALM compound 0.5 μg/ml): No
Combination Index (Irinotecan 1 × 10^−6 mol/L, ALM compound 1.0 μg/ml): No
Combination Index (Irinotecan 1 × 10^−6 mol/L, ALM compound 5.0 μg/ml): No
Combination Index (Irinotecan 1 × 10^−7 mol/L, ALM compound 0.1 μg/ml): No
Combination Index (Irinotecan 1 × 10^−7 mol/L, ALM compound 0.5 μg/ml): No
Combination Index (Irinotecan 1 × 10^−7 mol/L, ALM compound 1.0 μg/ml): No
Combination Index (Irinotecan 1 × 10^−7 mol/L, ALM compound 5.0 μg/ml): No
Combination Index (Irinotecan 1 × 10^−8 mol/L, ALM compound 0.1 μg/ml): No
Combination Index (Irinotecan 1 × 10^−8 mol/L, ALM compound 0.5 μg/ml): No
Combination Index (Irinotecan 1 × 10^−8 mol/L, ALM compound 1.0 μg/ml): No
Combination Index (Irinotecan 1 × 10^−8 mol/L, ALM compound 5.0 μg/ml): No
Combination Index (Irinotecan 1 × 10^−9 mol/L, ALM compound 0.1 μg/ml): No
Combination Index (Irinotecan 1 × 10^−9 mol/L, ALM compound 0.5 μg/ml): No
Combination Index (Irinotecan 1 × 10^−9 mol/L, ALM compound 1.0 μg/ml): No
Combination Index (Irinotecan 1 × 10^−9 mol/L, ALM compound 5.0 μg/ml): No
Combination Index (Irinotecan 1 × 10^−10 mol/L, ALM compound 0.1 μg/ml): No
Combination Index (Irinotecan 1 × 10^−10 mol/L, ALM compound 0.5 μg/ml): No
Combination Index (Irinotecan 1 × 10^−10 mol/L, ALM compound 1.0 μg/ml): No
Combination Index (Irinotecan 1 × 10^−10 mol/L, ALM compound 5.0 μg/ml): No
